The source of these data is PMC11672724, “Antiparasitic Activities of Acyl Hydrazones from Cinnamaldehydes and Structurally Related Fragrances” (Antibiotics, 2024).

A value given as a limit tells only on which side of the number the result lay.

For one data set, the system named is macrophages. Put plainly: Macrophage cytotoxicity (MTT assay, 72 h). It counts as cell-based, BALB/c mice. The settings on record: Mus musculus, IC50 ± SD. The procedure:
Plates were incubated for 24 h at 37 °C in a 5% CO2 environment to allow infection and amastigote differentiation. Infected cells were then washed with PBS and overlaid with RPMI 1640 medium containing the test compounds at the same concentrations as applied for the experiments with promastigotes, followed by incubation at 37 °C and 5% CO2 for 72 h. […] The percentage of infected macrophages was determined microscopically after fixation, Giemsa staining, and medium removal. IC50 values were calculated from three independent experiments. To assess the test compounds’ cytotoxicity, MTT assays were performed. […] Negative control cells were only given media with 2% FBS and 1% DMSO. The cells were cultured for 4 h after the supernatant was disposed of, and 50 μL of RPMI 1640 media containing 14 μL MTT (5 mg/mL) was added. After removing the supernatant once again, 150 μL of DMSO was added. IC50 values were determined from three independent experiments.

Another data set relates to L. major amastigotes. Put plainly: Leishmania major amastigotes in peritoneal macrophages (percentage of infected macrophages, 72 h). It is filed as cell-based. The following applies: Macrophage, IC50 ± SD. As to the method:
(§1) Promastigotes of L. major were obtained from a patient (February 2016) and cultured at 26 °C in Schneider’s Drosophila medium (Invitrogen, Carlsbad, CA, USA) supplemented with 10% heat-inactivated fetal bovine serum (FBS, Invitrogen, USA) and antibiotics, with weekly transfers in a tissue culture flask. Promastigotes were cryopreserved in liquid nitrogen at a concentration of 3 × 10^6 parasites/mL. Virulent L. major parasites were maintained by serial passage in female BALB/c mice, achieved by injecting hind footpads with 1 × 10^6 stationary-phase promastigotes. Amastigotes were isolated from the mice after 8 weeks, then converted to promastigotes by cultivation at 26 °C in Schneider’s medium containing 10% FBS and antibiotics. Amastigote-derived promastigotes, which underwent several in vitro passages, were used for the infection studies. BALB/c mice (both male and female) were provided by the Pharmaceutical College, King Saud University, Kingdom of Saudi Arabia, and housed in specific pathogen-free conditions following the ethical guidelines of the Qassim University Research Ethics Committee (permission number: 20-03-20).
Activity against amastigotes in macrophages was evaluated using peritoneal macrophages, which were harvested from 6–8-week-old BALB/c mice of different sex, and plated at 5 × 10^4 cells/well in 96-well plates containing phenol-red-free RPMI 1640 medium with 10% FBS. After 4 h at 37 °C and 5% CO2 to promote adhesion, cells were washed with PBS, and 200 μL of an L. major promastigote solution (10 promastigotes per macrophage) was added. Plates were incubated for 24 h at 37 °C in a 5% CO2 environment to allow infection and amastigote differentiation. Infected cells were then washed with PBS and overlaid with RPMI 1640 medium containing the test compounds at the same concentrations as applied for the experiments with promastigotes, followed by incubation at 37 °C and 5% CO2 for 72 h. […] IC50 values were calculated from three independent experiments.

In data set [1] the test system is T. gondii RH strain tachyzoites. As to the kind of experiment: Toxoplasma gondii cells drug testing assay (infection index in Vero cells, 72 h). It is filed as cell-based. The settings on record: for IC50: Toxoplasma gondii, Vero, IC50 ± SD, three independent experiments, 72 h. The procedure:
Cells of the Vero cell line (ATCC® CCL81™, Manassas, VA, USA) were used to cultivate T. gondii RH strain tachyzoites. Vero cells were maintained in complete RPMI 1640 medium (Thermo Fisher Scientific, Waltham, MA, USA). For cell cultivation, 96-well plates were prepared with 5 × 10^3 cells per well in 200 μL of RPMI 1640 medium, then incubated at 37 °C and 5% CO2 for 24 h. The medium was then removed, and cells were washed with phosphate-buffered saline (PBS). Next, RPMI 1640 medium with 2% FBS and parasites at a 5:1 parasite-to-cell ratio were added. After a 5 h incubation at 37 °C and 5% CO2, cells were washed with PBS and subjected to further treatments. […] After incubation at 37 °C and 5% CO2 for 72 h, cells were washed with PBS, fixed in 10% formalin, and stained with 1% toluidine blue. An inverted photomicroscope was used to assess cell infection and to determine the infection index (number of infected cells out of 200 counted cells). The inhibition percentage was calculated as follows:Inhibition (%) = [(I Control − I Experimental)/I Control] × 100 where “I Control” represents the infection index of untreated cells, and “I Experimental” represents the infection index of cells treated with test compounds. The effects of the compounds on parasite growth are expressed as IC50 values derived from three independent experiments.

The test system of the next data set is Vero monkey kidney cells. Put plainly: Vero cell cytotoxicity (MTT assay, 72 h). The settings on record: Primates, IC50 ± SD. It counts as cell-based. The procedure:
To assess the test compounds’ cytotoxicity, MTT assays were performed. The Vero cells and macrophages were cultivated for 24 h at 37 °C in RPMI 1640 media with 10% FBS and 5% CO2 in 96-well plates (5 × 10^3 cells/well/200 μL). Following a washing step with PBS, the cells were treated with test compounds at different concentrations (50, 25, 12.5, 6.25, 3.13, 1.65, and 0.75 μg /mL) in 10% FBS medium for 72 h. Negative control cells were only given media with 2% FBS and 1% DMSO. The cells were cultured for 4 h after the supernatant was disposed of, and 50 μL of RPMI 1640 media containing 14 μL MTT (5 mg/mL) was added. After removing the supernatant once again, 150 μL of DMSO was added. IC50 values were determined from three independent experiments.

The test system of the next data set is L. major promastigotes. As to the kind of experiment: Leishmania major promastigote assay (MTT, 72 h). It is filed as cell-based. The following applies: for IC50: IC50 ± SD, MTT, 72 h. The procedure: as §1
L. major promastigotes in the logarithmic phase were cultured in phenol-red-free RPMI 1640 medium (Invitrogen, USA) with 10% FBS in 96-well plates at 10^6 cells/mL (200 μL/well, counted with a hemocytometer). Test compounds were added at final concentrations of 50, 25, 12.5, 6.25, 3.13, 1.65, and 0.75 μg/mL. […] After incubation at 26 °C for 72 h, viable promastigotes were counted using an MTT colorimetric assay. The formed formazan was dissolved in a detergent and the absorbance was measured at 570 nm using an ELISA reader. IC50 values were derived from three independent experiments.

`CC(C)Cc1ccc(CC(C)/C=N/NC(=O)c2cccc(Cl)c2)cc1` (stereo not drawn) [Compound 3f, N′-2-Methyl-3-[4-(2-methylpropyl)phenyl]propanylidene-3-chlorobenzoylhydrazide] registered a melting point of 88 to 89 °C. The same molecule had a concentration for half-maximal inhibition (IC50) with macrophages greater than 56 µM. In the data set on L. major amastigotes, this molecule came in with an IC50 greater than 56 µM. In data set [1], this molecule had an IC50 of 22 ± 3.3 µM. Further, the “SI = selectivity index (Vero/T. gondii)” value in data set [1] (ratio IC50 Vero / IC50 T. gondii) was 2.3. The half-maximal inhibitory concentration (IC50) in the data set with Vero monkey kidney cells stood at 50.2 ± 7.7 µM. In the data set with L. major promastigotes, this molecule displayed an IC50 of 29.1 ± 3.3 µM. Further, in the data set with L. major promastigotes (Leishmania major), the IC50 was less than 30 µM. Besides, in the data set on L. major promastigotes (ratio IC50 macrophages / IC50 promastigotes), the “SI (promastigotes) = selectivity index (macrophages/L. major promastigotes)” value is given as greater than 1.9.

As to `CC(C)Cc1ccc(CC(C)/C=N/NC(=O)c2ccncc2)cc1` (stereo not drawn) [Compound 3g, N′-2-Methyl-3-[4-(2-methylpropyl)phenyl]propanylidene-isonicotinoylhydrazide], the melting point was in the range of 122 to 123 °C. In the data set on macrophages, this molecule came in with an IC50 greater than 61.8 µM. The same molecule returned an IC50 in the data set on L. major amastigotes greater than 61.8 µM. In data set [1], this molecule yielded an IC50 of 60.6 ± 10.1 µM. Besides, the IC50 in the data set on Vero monkey kidney cells was greater than 61.8 µM. The IC50 with L. major promastigotes (Leishmania major) was greater than 61.8 µM.

With `CC(C)c1cccc(C(C)C/C=N/NC(=O)c2cccc(O)c2)c1` (stereo not drawn) [Compound 4c, N′-3-(3-Isopropylphenyl)butanylidene-3-hydroxybenzoylhydrazide], the melting point fell in the range of 196 to 197 °C. This molecule registered an IC50 in the data set with macrophages greater than 61.7 µM. In the data set with L. major amastigotes, this molecule showed an IC50 greater than 61.7 µM. Moreover, in data set [1], the concentration for half-maximal inhibition (IC50) is greater than 61.7 µM. Moreover, in the data set with Vero monkey kidney cells, the midpoint of inhibition, the IC50, lay at 29.1 ± 2.6 µM. In the data set on L. major promastigotes (Leishmania major), this molecule came in with a 50% inhibitory concentration (IC50) greater than 61.7 µM.
